Experimental data as given in ChEMBL document CHEMBL1132656, “Design of highly active analogues of the pyrrolo[1,2-a]benzimidazole antitumor agents” (1999).

Key:
[1] = species on record: Mus musculus; test: The compound was tested for its ability to get to the tumor site after indicates that there is a percent T/C of 50 or < 50(tumor mass 50% or < the control)]; type: functional; set-up: scale not given here
[2] = test system: Mus musculus; test: The compound was tested for its ability to get to the tumor site after subcutaneous administration [Score of 2 indicates that there is a percent T/C of 50 or < 50(tumor mass 50% or < the control)]; type: functional

Row | Compound | Intraperitonal score [1] | Subcutaneous score [2]
1 | CC(=O)N[C@H]1CCn2c1nc1c2C(=O)C(C)=C(N2CC2)C1=O | 38 | 14
2 | CC1=C(N2CC2)C(=O)c2nc3n(c2C1=O)CCC3OC(N)=O (stereo not drawn) | 24 | 6
3 | CC(=O)NC1CCn2c1nc1c2C(=O)C(C)=C(N2CC2)C1=O (stereo not drawn) | 46 | 6
4 | CC(=O)OC1CCn2c1nc1c2C(=O)C(C)=C(N2CC2)C1=O (stereo not drawn) | 40 | 8
